Data taken from ChEMBL document CHEMBL1136182, “Cage amines as the stopper inhibitors of cholinesterases” (Bioorg Med Chem Lett, 2003).

How the values were obtained:
Acetylcholinesterase = Acetylcholinesterase (Electrophorus electricus, UniProt O42275); assay: Inhibitory activity against acetylcholinesterase
[1] = biological target: Acetylcholinesterase (Electrophorus electricus) (UniProt O42275); assay: Selectivity ratio of inhibition of acetylcholinesterase-AChE to that of inhibition of butyrylcholinesterase-BChE
Butyrylcholinesterase = Butyrylcholinesterase (Equus caballus, UniProt Q9N1N9); assay: Inhibitory activity against Butyrylcholinesterase
Sequence of Butyrylcholinesterase (Q9N1N9 whole entry): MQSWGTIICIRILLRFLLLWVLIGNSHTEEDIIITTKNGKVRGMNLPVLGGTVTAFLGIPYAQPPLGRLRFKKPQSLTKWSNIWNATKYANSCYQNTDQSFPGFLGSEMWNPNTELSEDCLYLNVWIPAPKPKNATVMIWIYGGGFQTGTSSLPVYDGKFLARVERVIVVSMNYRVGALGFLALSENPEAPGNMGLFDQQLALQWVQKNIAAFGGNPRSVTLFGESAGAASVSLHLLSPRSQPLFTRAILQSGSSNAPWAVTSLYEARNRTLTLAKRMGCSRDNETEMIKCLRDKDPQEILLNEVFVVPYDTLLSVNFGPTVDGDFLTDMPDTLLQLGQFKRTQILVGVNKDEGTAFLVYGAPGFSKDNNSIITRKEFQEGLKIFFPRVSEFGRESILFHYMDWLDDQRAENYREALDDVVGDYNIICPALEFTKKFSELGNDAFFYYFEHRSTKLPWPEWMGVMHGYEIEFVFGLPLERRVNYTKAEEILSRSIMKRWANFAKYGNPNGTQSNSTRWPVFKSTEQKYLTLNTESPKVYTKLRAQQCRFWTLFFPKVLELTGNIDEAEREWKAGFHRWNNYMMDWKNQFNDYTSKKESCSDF

Sequence of Acetylcholinesterase (O42275 whole entry): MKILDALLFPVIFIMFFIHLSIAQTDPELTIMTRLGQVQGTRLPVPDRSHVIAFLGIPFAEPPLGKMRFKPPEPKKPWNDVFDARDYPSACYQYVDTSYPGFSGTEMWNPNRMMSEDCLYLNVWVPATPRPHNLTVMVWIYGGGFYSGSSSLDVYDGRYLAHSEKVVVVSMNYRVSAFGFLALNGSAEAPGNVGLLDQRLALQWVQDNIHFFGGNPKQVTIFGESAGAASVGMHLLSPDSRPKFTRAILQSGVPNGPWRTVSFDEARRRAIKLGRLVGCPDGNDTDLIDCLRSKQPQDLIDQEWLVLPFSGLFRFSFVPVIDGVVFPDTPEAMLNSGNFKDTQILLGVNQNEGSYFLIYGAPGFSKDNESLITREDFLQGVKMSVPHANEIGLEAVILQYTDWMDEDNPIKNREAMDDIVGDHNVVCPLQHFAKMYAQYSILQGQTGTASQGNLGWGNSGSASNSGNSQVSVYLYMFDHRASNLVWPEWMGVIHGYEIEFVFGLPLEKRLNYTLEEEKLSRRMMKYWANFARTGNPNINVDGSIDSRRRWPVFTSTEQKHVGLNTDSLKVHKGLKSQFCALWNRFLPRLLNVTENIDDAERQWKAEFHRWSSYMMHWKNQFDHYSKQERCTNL
Sequence of Acetylcholinesterase (Electrophorus electricus) (O42275 24-633 limits assumed): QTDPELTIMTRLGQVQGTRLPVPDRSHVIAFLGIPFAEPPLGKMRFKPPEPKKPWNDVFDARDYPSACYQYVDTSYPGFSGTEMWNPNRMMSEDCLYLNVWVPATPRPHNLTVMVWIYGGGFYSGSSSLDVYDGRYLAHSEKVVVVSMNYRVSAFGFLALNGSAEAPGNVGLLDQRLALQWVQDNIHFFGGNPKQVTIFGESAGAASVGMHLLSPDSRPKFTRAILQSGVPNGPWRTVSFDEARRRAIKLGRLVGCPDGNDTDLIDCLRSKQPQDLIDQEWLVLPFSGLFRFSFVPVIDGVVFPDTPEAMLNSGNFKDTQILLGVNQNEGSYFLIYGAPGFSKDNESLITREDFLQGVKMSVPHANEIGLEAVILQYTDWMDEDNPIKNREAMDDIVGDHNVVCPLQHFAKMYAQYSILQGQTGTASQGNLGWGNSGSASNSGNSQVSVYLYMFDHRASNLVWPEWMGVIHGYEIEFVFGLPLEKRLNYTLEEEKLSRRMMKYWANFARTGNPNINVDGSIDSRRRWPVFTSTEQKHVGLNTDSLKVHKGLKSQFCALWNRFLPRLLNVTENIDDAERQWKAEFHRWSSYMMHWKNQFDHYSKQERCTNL

Row | SMILES | Ki (Acetylcholinesterase) | Ratio [1] | Ki (Butyrylcholinesterase)
1 | c1cc2c(cc1CNC1C3N(Cc4ccc5c(c4)OCO5)C4C(N1Cc1ccc5c(c1)OCO5)N(Cc1ccc5c(c1)OCO5)C1(CC1N3Cc1ccc3c(c1)OCO3)N4Cc1ccc3c(c1)OCO3)OCO2 (centres undefined) | 320 nM | 1 | 310 nM
2 | Clc1ccccc1CNC1C2N(Cc3ccccc3Cl)C3C(N1Cc1ccccc1Cl)N(Cc1ccccc1Cl)C1(CC1N2Cc1ccccc1Cl)N3Cc1ccccc1Cl (centres undefined) | 39 nM | 3.9 | 10 nM
3 | COc1cc(CNC2C3N(Cc4cc(OC)cc(OC)c4)C4C(N2Cc2cc(OC)cc(OC)c2)N(Cc2cc(OC)cc(OC)c2)C2(CC2N3Cc2cc(OC)cc(OC)c2)N4Cc2cc(OC)cc(OC)c2)cc(OC)c1 (centres undefined) | 130 nM | 2.2 | 60 nM
